Test results taken from patent publication US8735414B2 (priority 2009, dated 2014).

Tests used:
[1] = system: bicistronic HCV replicon (replicon RNA, GenBank Accession No. AJ242654); test: HCV Replicon Assay; format: cell-based; settings: Hepatitis C virus, 72 h, read-out: Replicon IC50

| Compound | IC50 [1] | melting point |
| --- | --- | --- |
| Cc1ccc2c(c1)c(C#N)c(-c1ncc(S(=O)(=O)N[C@@H](C)C(F)(F)F)cn1)n2CC1CC1 [compound 389, 2-[3-cyano-1-(cyclopropylmethyl)-5-methyl-1H-indol-2-yl]-N-[(2S)-1,1,1-trifluoropropan-2-yl]pyrimidine-5-sulfonamide] | 500 to 2000 nM | 220 to 223 °C |
| CCc1cc2c(cc1F)c(C(N)=O)c(-c1ccc(NS(=O)(=O)C(C)(C)C)nc1)n2[C@@H](C)C1CC1 [compound 1083, 2-{6-[(tert-butylsulfonyl)amino]pyridin-3-yl}-1-[(1S)-1-cyclopropylethyl]-6-ethyl-5-fluoro-1H-indole-3-carboxamide] | < 500 nM | 256 to 259 °C |
| Cc1ccc2c(C#N)c(-c3ncc(S(=O)(=O)N[C@@H](C)C4CC4)cn3)n(CC3CC3)c2c1 [compound 203, 2-[3-cyano-1-(cyclopropylmethyl)-6-methyl-1H-indol-2-yl]-N-[(1S)-1-cyclopropylethyl]pyrimidine-5-sulfonamide] | < 500 nM | 205 to 207 °C |
| Cc1ccc2c(c1)c(C#N)c(-c1ccc(S(=O)(=O)N[C@@H](C)C(F)(F)F)cn1)n2-c1ccccc1 [compound 921, 6-(3-cyano-5-methyl-1-phenyl-1H-indol-2-yl)-N-[(2S)-1,1,1-trifluoropropan-2-yl]pyridine-3-sulfonamide] | < 500 nM | 160 to 165 °C |
| Cc1cc2c(cc1Cl)c(C#N)c(-c1ncc(S(=O)(=O)NC(CF)CF)cn1)n2C1CCC1 [compound 447, 2-(5-chloro-3-cyano-1-cyclobutyl-6-methyl-1H-indol-2-yl)-N-(1,3-difluoropropan-2-yl)pyrimidine-5-sulfonamide] | < 500 nM | 275 to 279 °C |
| C[C@H](NS(=O)(=O)c1cnc(-c2c(C#N)c3ccc(OC(F)F)cc3n2C2CCC2)nc1)C1CC1 [compound 130, 2-[3-cyano-1-cyclobutyl-6-(difluoromethoxy)-1H-indol-2-yl]-N-[(1S)-1-cyclopropylethyl]pyrimidine-5-sulfonamide] | < 500 nM | 172 to 174 °C |
| Cc1ccc2c(C#N)c(-c3ncc(S(=O)(=O)NC(CF)CF)cn3)n(C3CCCC3)c2c1F [compound 586, 2-(3-cyano-1-cyclopentyl-7-fluoro-6-methyl-1H-indol-2-yl)-N-(1,3-difluoropropan-2-yl)pyrimidine-5-sulfonamide] | < 500 nM | 226 to 232 °C |
| CCn1c(-c2ncc(S(=O)(=O)NC(C)C)cn2)c(C#N)c2cc(OC(F)F)ccc21 [compound 242, 2-[3-cyano-5-(difluoromethoxy)-1-ethyl-1H-indol-2-yl]-N-(propan-2-yl)pyrimidine-5-sulfonamide] | 500 to 2000 nM | 180 to 185 °C |
| CCc1ccc2c(C#N)c(-c3ccc(S(=O)(=O)N[C@@H](C)C4CC4)cn3)n(C3CCCC3)c2c1 [compound 312, 6-(3-cyano-1-cyclopentyl-6-ethyl-1H-indol-2-yl)-N-[(1S)-1-cyclopropylethyl]pyridine-3-sulfonamide] | 500 to 2000 nM | 147.5 to 148.5 °C |
| CC(C)c1ccc2c(C#N)c(-c3ncc(S(=O)(=O)N[C@@H](C)C(F)(F)F)cn3)n(C3CCC3)c2c1 [compound 455, 2-[3-cyano-1-cyclobutyl-6-(propan-2-yl)-1H-indol-2-yl]-N-[(2S)-1,1,1-trifluoropropan-2-yl]pyrimidine-5-sulfonamide] | < 500 nM | 217 to 222 °C |
| C[C@H](NS(=O)(=O)c1ccc(-c2c(C#N)c3cc(F)c(C4CC4)cc3n2-c2ncccn2)nc1)C(F)(F)F [compound 820, 6-[3-cyano-6-cyclopropyl-5-fluoro-1-(pyrimidin-2-yl)-1H-indol-2-yl]-N-[(2S)-1,1,1-trifluoropropan-2-yl]pyridine-3-sulfonamide] | < 500 nM | 236 to 240 °C |
| Cc1ccc2c(C#N)c(-c3ccc(S(=O)(=O)N[C@@H](C)C(F)(F)F)cn3)n(C3CCCCC3)c2c1 [compound 354, 6-(3-cyano-1-cyclohexyl-6-methyl-1H-indol-2-yl)-N-[(2S)-1,1,1-trifluoropropan-2-yl]pyridine-3-sulfonamide] | < 500 nM | 207 to 212 °C |
| CCc1cc2c(cc1F)c(C(N)=O)c(-c1ccc(S(=O)(=O)N[C@@H](C)C(F)(F)F)cn1)n2-c1ccc(F)cn1 [compound 981, 6-ethyl-5-fluoro-1-(5-fluoropyridin-2-yl)-2-(5-{[(2S)-1,1,1-trifluoropropan-2-yl]sulfamoyl}pyridin-2-yl)-1H-indole-3-carboxamide] | < 500 nM | 200 to 204 °C |
| CC(C)(C)S(=O)(=O)Nc1ccc(-c2c(C#N)c3ccc(Oc4ncccn4)cc3n2C2CCC2)cn1 [compound 268, N-{5-[3-cyano-1-cyclobutyl-6-(pyrimidin-2-yloxy)-1H-indol-2-yl]pyridin-2-yl}-2-methylpropane-2-sulfonamide] | < 500 nM | 275 to 277 °C |
| Cc1cc2c(cc1F)c(C(=O)O)c(-c1ncc(S(=O)(=O)NC(C)(C)C)cn1)n2C1CCC1 [compound 794, 2-[5-(tert-butylsulfamoyl)pyrimidin-2-yl]-1-cyclobutyl-5-fluoro-6-methyl-1H-indole-3-carboxylic acid] | 2000 to 5000 nM | 194 to 201 °C |
| CCc1cc2c(cc1F)c(C#N)c(-c1ccc(S(=O)(=O)NC(C)(C)C)cn1)n2-c1cnccn1 [compound 899, N-tert-butyl-6-[3-cyano-6-ethyl-5-fluoro-1-(pyrazin-2-yl)-1H-indol-2-yl]pyridine-3-sulfonamide] | < 500 nM | 196 to 201 °C |
| Cc1cc2c(cc1F)c(C#N)c(-c1ncc(S(=O)(=O)N[C@@H](C)C(F)(F)F)cc1C)n2-c1ccccn1 [compound 889, 6-[3-cyano-5-fluoro-6-methyl-1-(pyridin-2-yl)-1H-indol-2-yl]-5-methyl-N-[(2S)-1,1,1-trifluoropropan-2-yl]pyridine-3-sulfonamide] | < 500 nM | 197 to 202 °C |
| Cc1cc2c(C#N)c(-c3ccc(S(=O)(=O)NC(CF)CF)cn3)n(C3CCCC3)c2cc1F [compound 482, 6-(3-cyano-1-cyclopentyl-6-fluoro-5-methyl-1H-indol-2-yl)-N-(1,3-difluoropropan-2-yl)pyridine-3-sulfonamide] | < 500 nM | 207 to 211 °C |
| Cc1cc2c(cc1Cl)c(C#N)c(-c1ccc(S(=O)(=O)N[C@@H](C)C(F)(F)F)cn1)n2C1CCC1 [compound 446, 6-(5-chloro-3-cyano-1-cyclobutyl-6-methyl-1H-indol-2-yl)-N-[(2S)-1,1,1-trifluoropropan-2-yl]pyridine-3-sulfonamide] | < 500 nM | 209 to 210 °C |
| C[C@H](NS(=O)(=O)c1ccc(-c2c(C#N)c3ccc(F)cc3n2C2CCCC2)nc1)C(F)(F)F [compound 396, 6-(3-cyano-1-cyclopentyl-6-fluoro-1H-indol-2-yl)-N-[(2S)-1,1,1-trifluoropropan-2-yl]pyridine-3-sulfonamide] | < 500 nM | 132 to 133 °C |
| CC(C)(NS(=O)(=O)c1ccc(-c2c(C(N)=O)c3cc(F)c(OC(F)F)cc3n2C2CCCC2)nc1)C(F)(F)F [compound 863, 1-cyclopentyl-6-(difluoromethoxy)-5-fluoro-2-{5-[(1,1,1-trifluoro-2-methylpropan-2-yl)sulfamoyl]pyridin-2-yl}-1H-indole-3-carboxamide] | < 500 nM | 215 to 217 °C |
| CCCn1c(-c2ncc(S(=O)(=O)N[C@@H](C)C3CC3)cn2)c(C#N)c2ccc(OC(F)F)cc21 [compound 208, 2-[3-cyano-6-(difluoromethoxy)-1-propyl-1H-indol-2-yl]-N-[(1S)-1-cyclopropylethyl]pyrimidine-5-sulfonamide] | < 500 nM | 152 to 154 °C |
| COc1cc2c(cc1F)c(C#N)c(-c1ccc(S(=O)(=O)NC(CF)CF)cn1)n2CC1CC1 [compound 225, 6-[3-cyano-1-(cyclopropylmethyl)-5-fluoro-6-methoxy-1H-indol-2-yl]-N-(1,3-difluoropropan-2-yl)pyridine-3-sulfonamide] | < 500 nM | 196 to 199 °C |
| Cc1cc2c(cc1F)c(C#N)c(-c1ccc(S(=O)(=O)N[C@@H](C)C(F)(F)F)cn1)n2-c1cccc(F)n1 [compound 815, 6-[3-cyano-5-fluoro-1-(6-fluoropyridin-2-yl)-6-methyl-1H-indol-2-yl]-N-[(2S)-1,1,1-trifluoropropan-2-yl]pyridine-3-sulfonamide] | < 500 nM | 210 to 212 °C |
| C[C@H](NS(=O)(=O)c1cnc(-c2c(C#N)c3ccc(Cl)cc3n2-c2ccccn2)nc1)C(F)(F)F [compound 449] | < 500 nM | 163 to 166 °C |
| C[C@H](NS(=O)(=O)c1ccc(-c2c(C#N)c3cc(Cl)ccc3n2-c2ncccn2)nc1)C(F)(F)F [compound 708, 6-[5-chloro-3-cyano-1-(pyrimidin-2-yl)-1H-indol-2-yl]-N-[(2S)-1,1,1-trifluoropropan-2-yl]pyridine-3-sulfonamide] | < 500 nM | 193 to 196 °C |
| N#Cc1c(-c2ccc(NS(=O)(=O)C3CC3)cn2)n(CC2CC2)c2cc(OC(F)F)ccc12 [compound 270, N-{6-[3-cyano-1-(cyclopropylmethyl)-6-(difluoromethoxy)-1H-indol-2-yl]pyridin-3-yl}cyclopropanesulfonamide] | 2000 to 5000 nM | 156 to 158 °C |
| N#Cc1c(-c2ncc(S(=O)(=O)NC(CF)CF)cn2)n(C2CCCCC2)c2ccc(Cl)cc12 [compound 463, 2-(5-chloro-3-cyano-1-cyclohexyl-1H-indol-2-yl)-N-(1,3-difluoropropan-2-yl)pyrimidine-5-sulfonamide] | < 500 nM | 251 to 253 °C |
| Cc1ccc2c(C#N)c(-c3ccc(S(=O)(=O)NC(CF)CF)cn3)n(C3CCC3)c2c1F [compound 422, 6-(3-cyano-1-cyclobutyl-7-fluoro-6-methyl-1H-indol-2-yl)-N-(1,3-difluoropropan-2-yl)pyridine-3-sulfonamide] | < 500 nM | 186 to 201 °C |
